Consider 1 molecule from US11945798B2, “Substituted aminopyridine compounds as EGFR inhibitors” (YUHAN CORPORATION, priority 2021, dated 2024).

Molecules are shown by their SMILES.

For assay [1], the target named is EGFR del19/T790M/C797S (Homo sapiens, UniProt P00533, C797S/DEL746-750/T790M). Kind of assay: Biochemical EGFR kinase assay (Lance Ultra TR-FRET), del19/T790M/C797S. The settings on record: Km ATP; read-out: IC50 del19/T790M/C797S (nM) Km ATP. The method in brief:
(§1)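 Step 1: compound in kinase buffer, 0.003–10 μM. Step 2: kinase reaction 1 h at room temperature. Step 4: TR-FRET read at 615/665 nm; IC50 calculated.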
In general terms: In TR-FRET formats the signal depends on donor and acceptor labels being close together.

Assay [2] concerns the target EGFR L858R/T790M/C797S (Homo sapiens, UniProt P00533, C797S/L858R/T790M). Kind of assay: Biochemical EGFR kinase assay (Lance Ultra TR-FRET), L858R/T790M/C797S. The settings on record: Km ATP; read-out: IC50 L858R/T790M/C797S (nM) Km ATP. Summed up: as §1
For assay [3], the target named is EGFR del19/C797S (Homo sapiens, UniProt P00533, C797S/DEL746-750). Kind of assay: Biochemical EGFR kinase assay (Lance Ultra TR-FRET), del19/C797S. The settings on record: Km ATP; read-out: IC50 del19/C797S (nM) Km ATP. Summed up: as §1
The target of assay [4] is EGFR L858R/C797S (Homo sapiens, UniProt P00533, C797S/L858R). Kind of assay: Biochemical EGFR kinase assay (Lance Ultra TR-FRET), L858R/C797S. To be noted: Km ATP; read-out: IC50 L858R/C797S (nM) Km ATP. Summed up: as §1
Assay [5] concerns the target EGFR wildtype (WT) (Homo sapiens, UniProt P00533). Kind of assay: Biochemical EGFR kinase assay (Lance Ultra TR-FRET), wildtype. To be noted: Km ATP; read-out: IC50 WT (nM) Km ATP. The method in brief: as §1

Sequence of EGFR del19/C797S (P00533 with tags, fused parts or gaps DEL746-750/C797S): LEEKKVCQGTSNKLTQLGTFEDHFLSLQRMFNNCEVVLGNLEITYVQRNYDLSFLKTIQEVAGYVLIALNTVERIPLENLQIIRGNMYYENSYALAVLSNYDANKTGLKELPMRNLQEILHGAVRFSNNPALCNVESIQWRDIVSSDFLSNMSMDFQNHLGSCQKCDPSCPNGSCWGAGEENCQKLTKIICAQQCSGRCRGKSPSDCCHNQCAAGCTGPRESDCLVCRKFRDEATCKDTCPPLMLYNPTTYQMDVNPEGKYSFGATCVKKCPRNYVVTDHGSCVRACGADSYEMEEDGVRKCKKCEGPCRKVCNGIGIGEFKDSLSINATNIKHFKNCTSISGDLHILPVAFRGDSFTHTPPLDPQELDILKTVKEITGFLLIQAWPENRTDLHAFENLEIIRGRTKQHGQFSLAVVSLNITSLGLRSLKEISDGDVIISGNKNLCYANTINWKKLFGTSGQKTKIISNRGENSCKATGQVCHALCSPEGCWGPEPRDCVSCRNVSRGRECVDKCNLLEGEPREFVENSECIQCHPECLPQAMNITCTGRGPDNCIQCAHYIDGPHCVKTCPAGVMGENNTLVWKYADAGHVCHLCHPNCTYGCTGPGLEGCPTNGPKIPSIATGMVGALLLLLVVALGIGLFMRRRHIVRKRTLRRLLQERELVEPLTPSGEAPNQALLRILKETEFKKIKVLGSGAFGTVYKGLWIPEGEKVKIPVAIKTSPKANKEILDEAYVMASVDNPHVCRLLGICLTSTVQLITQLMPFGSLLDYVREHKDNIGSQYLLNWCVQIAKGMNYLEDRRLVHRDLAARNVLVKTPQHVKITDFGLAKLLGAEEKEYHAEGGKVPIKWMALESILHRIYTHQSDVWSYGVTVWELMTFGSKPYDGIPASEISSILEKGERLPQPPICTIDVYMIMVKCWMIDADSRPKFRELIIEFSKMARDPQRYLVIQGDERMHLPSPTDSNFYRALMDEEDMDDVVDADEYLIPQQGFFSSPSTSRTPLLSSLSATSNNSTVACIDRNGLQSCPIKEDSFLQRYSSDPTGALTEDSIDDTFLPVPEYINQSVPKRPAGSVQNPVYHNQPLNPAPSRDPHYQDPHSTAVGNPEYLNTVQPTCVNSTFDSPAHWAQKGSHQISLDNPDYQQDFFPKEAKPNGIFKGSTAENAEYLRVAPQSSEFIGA
Sequence of EGFR wildtype (WT) (P00533 25-1210): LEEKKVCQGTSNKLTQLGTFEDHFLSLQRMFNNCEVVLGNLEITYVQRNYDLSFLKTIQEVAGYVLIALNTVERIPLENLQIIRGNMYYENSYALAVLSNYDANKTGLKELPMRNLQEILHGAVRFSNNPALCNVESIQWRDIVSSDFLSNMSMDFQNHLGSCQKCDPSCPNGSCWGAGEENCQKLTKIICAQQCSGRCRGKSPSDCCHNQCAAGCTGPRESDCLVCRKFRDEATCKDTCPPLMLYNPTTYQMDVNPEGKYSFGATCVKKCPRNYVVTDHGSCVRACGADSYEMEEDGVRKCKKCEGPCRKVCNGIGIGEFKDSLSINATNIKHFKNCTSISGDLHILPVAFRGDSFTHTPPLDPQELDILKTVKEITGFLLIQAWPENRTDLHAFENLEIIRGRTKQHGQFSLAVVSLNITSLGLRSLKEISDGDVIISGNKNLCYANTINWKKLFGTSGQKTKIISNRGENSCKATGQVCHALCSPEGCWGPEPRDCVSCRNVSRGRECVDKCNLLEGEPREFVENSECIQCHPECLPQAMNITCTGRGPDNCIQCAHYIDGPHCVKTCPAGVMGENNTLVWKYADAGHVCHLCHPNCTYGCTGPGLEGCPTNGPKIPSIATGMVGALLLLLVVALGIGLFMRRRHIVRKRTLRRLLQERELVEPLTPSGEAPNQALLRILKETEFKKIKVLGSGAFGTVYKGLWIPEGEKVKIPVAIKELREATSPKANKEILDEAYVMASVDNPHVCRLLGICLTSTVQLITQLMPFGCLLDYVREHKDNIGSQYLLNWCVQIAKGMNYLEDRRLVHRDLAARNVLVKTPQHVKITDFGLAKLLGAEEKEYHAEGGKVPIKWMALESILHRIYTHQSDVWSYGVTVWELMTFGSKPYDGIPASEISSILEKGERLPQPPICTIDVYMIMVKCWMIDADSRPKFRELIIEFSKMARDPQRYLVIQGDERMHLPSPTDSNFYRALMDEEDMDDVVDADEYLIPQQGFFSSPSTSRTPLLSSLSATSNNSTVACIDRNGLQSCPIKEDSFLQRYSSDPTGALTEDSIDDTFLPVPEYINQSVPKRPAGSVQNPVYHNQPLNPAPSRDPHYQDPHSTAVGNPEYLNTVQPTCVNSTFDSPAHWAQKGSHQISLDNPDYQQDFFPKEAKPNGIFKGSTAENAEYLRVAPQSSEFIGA
Sequence of EGFR L858R/C797S (P00533 25-1210 C797S/L858R): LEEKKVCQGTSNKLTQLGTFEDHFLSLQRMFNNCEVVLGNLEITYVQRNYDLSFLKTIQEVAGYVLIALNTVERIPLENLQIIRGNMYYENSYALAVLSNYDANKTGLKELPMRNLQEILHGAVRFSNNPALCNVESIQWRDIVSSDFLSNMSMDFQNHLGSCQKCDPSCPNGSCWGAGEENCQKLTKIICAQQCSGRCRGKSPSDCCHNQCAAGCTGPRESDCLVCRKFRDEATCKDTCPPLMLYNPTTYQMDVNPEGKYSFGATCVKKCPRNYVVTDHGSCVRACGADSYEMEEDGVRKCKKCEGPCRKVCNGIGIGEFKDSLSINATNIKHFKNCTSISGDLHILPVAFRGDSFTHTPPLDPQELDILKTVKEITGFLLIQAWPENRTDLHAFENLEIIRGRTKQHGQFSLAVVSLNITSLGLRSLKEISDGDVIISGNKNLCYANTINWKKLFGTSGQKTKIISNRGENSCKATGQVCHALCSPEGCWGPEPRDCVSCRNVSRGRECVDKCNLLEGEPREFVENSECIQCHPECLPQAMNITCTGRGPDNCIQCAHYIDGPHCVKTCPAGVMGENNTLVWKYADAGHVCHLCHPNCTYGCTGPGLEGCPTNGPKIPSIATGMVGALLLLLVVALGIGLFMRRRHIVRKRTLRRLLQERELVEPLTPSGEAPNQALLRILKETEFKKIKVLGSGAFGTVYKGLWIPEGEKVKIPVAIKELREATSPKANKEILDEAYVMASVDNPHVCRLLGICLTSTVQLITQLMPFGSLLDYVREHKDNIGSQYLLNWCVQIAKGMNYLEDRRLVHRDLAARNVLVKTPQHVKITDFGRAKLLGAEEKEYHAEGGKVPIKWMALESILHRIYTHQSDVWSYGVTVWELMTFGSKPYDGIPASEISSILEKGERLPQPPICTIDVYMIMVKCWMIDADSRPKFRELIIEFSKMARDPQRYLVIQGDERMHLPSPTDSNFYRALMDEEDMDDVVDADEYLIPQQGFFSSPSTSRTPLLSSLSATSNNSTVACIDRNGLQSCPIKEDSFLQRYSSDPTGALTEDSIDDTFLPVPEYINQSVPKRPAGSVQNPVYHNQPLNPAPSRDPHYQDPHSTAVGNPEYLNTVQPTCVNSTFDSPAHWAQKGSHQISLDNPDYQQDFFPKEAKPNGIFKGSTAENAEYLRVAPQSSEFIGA
Sequence of EGFR L858R/T790M/C797S (P00533 25-1210 T790M/C797S/L858R): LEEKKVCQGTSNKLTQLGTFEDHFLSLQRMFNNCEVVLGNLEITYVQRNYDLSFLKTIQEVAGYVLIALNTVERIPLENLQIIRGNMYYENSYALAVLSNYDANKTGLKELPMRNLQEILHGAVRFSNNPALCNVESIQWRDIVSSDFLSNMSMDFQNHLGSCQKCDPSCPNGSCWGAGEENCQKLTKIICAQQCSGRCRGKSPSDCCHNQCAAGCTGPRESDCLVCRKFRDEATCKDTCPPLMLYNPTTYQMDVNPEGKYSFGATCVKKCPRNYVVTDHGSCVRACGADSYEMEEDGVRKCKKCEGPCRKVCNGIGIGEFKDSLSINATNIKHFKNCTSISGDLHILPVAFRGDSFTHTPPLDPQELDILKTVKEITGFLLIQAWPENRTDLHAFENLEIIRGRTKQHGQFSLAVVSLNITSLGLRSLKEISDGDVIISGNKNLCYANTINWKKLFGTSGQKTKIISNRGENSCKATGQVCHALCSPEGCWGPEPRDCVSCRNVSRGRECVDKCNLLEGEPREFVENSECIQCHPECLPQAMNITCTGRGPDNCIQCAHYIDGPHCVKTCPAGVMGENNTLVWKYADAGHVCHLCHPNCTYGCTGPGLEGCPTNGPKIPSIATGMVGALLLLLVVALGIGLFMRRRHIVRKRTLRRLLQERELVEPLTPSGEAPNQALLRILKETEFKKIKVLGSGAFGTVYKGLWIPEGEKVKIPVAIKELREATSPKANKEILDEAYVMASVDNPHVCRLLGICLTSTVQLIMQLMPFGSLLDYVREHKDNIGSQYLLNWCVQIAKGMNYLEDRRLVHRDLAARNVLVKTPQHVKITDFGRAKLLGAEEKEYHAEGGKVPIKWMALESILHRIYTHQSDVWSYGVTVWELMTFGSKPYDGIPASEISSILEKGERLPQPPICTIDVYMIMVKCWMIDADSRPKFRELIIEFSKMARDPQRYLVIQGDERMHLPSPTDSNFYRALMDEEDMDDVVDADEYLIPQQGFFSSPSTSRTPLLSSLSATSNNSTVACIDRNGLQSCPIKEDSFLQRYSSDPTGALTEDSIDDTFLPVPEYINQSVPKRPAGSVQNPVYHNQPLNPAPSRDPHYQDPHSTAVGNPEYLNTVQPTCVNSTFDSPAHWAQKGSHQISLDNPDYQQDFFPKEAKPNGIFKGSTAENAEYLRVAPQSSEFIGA

As to `O=C(c1cnc(Nc2ccnc(-c3cnn(S(=O)(=O)C4CC4)c3)n2)cc1NC1CCC(CO)C1)C1CC1` (centres unmarked) [Example 13, Cyclopropyl(6-((2-(1-(cyclopropylsulfonyl)-1H-pyrazol-4-yl)pyrimidin-4-yl)amino)-4-((3-(hydroxymethyl)cyclopentyl)amino)pyridin-3-yl)methanone], the IC50 in assay [1] amounted to 0.2 nM; in assay [2], 0.2 nM; in assay [3], 4.5 nM; in assay [4], 61.7 nM; in assay [5] it was 28.2 nM.
